Test results: US20170218042A1, “METHODS OF ISOLATING T CELL RECEPTORS HAVING ANTIGENIC SPECIFICITY FOR A CANCER-SPECIFIC MUTATION” (The United State of America, as represented by the …, priority 2014, published 2017)

Tested on: 3737-TIL
Assay: Co-culture of 3737-TIL with TMG-RNA-transfected autologous DCs; flow cytometry for activation markers 4-1BB and OX40
Type: cell-based, human
Description: APCs (DCs or B cells) were harvested, washed 1× with PBS, and then resuspended in Opti-MEM (Life Technologies) at 10-30×10^6 cells/ml. IVT RNA (4 μg or 8 μg) was aliquoted to the bottom of a 2 mm gap electroporation cuvette, and 50 μl or 100 μl of APCs were added directly to the cuvette. The final RNA concentration used in electroporations was thus 80 μg/ml. Electroporations were carried out using a BTX-830 square wave electroporator. DCs were electroporated with 150 V, 10 ms, and 1 pulse, and B cells were electroporated with 150 V, 20 ms, and 1 pulse. Transfection efficiencies using these settings were routinely between 70-90% as assessed with GFP RNA (data not shown). All steps were carried out at room temperature. Following electroporation, cells were immediately transferred to polypropylene tubes containing DC- or B-cell media supplemented with the appropriate cytokines. Transfected cells were incubated overnight (12-14 h) at 37° C., 5% CO2. Cells were washed 1× with PBS prior to use in co-culture assays.
When DCs were used as APCs, approximately 3.5×10^4 to 7×10^4 DCs were used per well of a 96-well flat or round-bottom plate. When B cells were used as APCs, approximately 2×10^5 cells were used per well of a 96-well round-bottom plate. In ELISPOT assays, 1×10^3 to 1×10^4 effector T cells were used per well, and in flow cytometry assays, 1×10^5 effector T cells were used per well. T cells were typically thawed and rested in IL-2 containing 50/50 media (3000 IU/ml IL-2) for two days and then washed with PBS (3×) prior to co-culture assays. All co-cultures were performed in the absence of exogenously added cytokines. For all assays, plate-bound OKT3 (0.1 μg/ml or 1 μg/ml) was used as a positive control.
Expression of the T-cell activation markers OX40 and 4-1BB was assessed by flow cytometry at approximately t=22-26 h post-stimulation. Briefly, cells were pelleted, washed with FACS buffer (1×PBS supplemented with 1% FBS and 2 mM EDTA), and then stained with the appropriate antibodies for approximately 30 min, at 4° C. in the dark. Cells were washed at least once with FACS buffer prior to acquisition on a BD FACSCanto II flow cytometer. All data were gated on live (PI negative), single cells.
The TMG constructs were then used as templates for the generation of in vitro transcribed (IVT) RNA. Each of these IVT TMG RNAs was then individually transfected into autologous APCs (DCs) followed by a co-culture with TIL to determine whether any of the processed and presented mutated antigens were recognized by TIL. It was observed that 3737-TIL were reactive to a mutated antigen present in TMG-1, but not TMG-2 or TMG-3 (FIG. 1A). […] Tables 4A and 4B show the percentage of 3737-TIL detected by flow cytometry as having the indicated phenotype following coculture with DCs cultured with the non-specific stimulator OKT3 or DCs transfected with green fluorescent protein (GFP) RNA, or the indicated tandem mini-gene (TMG) construct encoding the various mutations identified by whole-exomic sequencing. Mock-transfected cells were treated with transfection reagent only without addition of nucleic acid. Data were gated on live CD3+ cells.
3737-TIL were co-cultured with DCs transfected with TMG-1 or TMG-1 encoding the wild-type (wt) ERBB2IP reversion, and flow cytometry was used to assess OX40 and Vβ22 expression on CD4+ T cells at 24 hours post-stimulation. Plate-bound OKT3 stimulation was used as a positive control.

[1] = 3737-TIL CD4+ T cells, 24 hours post-stimulation
[2] = percentage of 3737-TIL after co-culture with transfected DCs or OKT3, gated on live CD3+ cells

**Q.** What does the source list for “OKT3: anti-CD3 antibody, non-specific stimulator, plate-bound positive control”?
**A.** Vβ22+/OX40+ [1]: 44%; Vβ22+/OX40− [1]: 6%; Vβ22−/OX40+ [1]: 31%; Vβ22−/OX40− [1]: 19%; 4-1BB+/CD4+ [2]: 32%; 4-1BB+/CD4− [2]: 41%; 4-1BB−/CD4+ [2]: 23%; 4-1BB−/CD4− [2]: 4%; OX40+/CD4+ [2]: 45%; OX40+/CD4− [2]: 6%; OX40−/CD4+ [2]: 11%; OX40−/CD4− [2]: 38%
